{"source": "patent US11447486B2", "about": "“2-amino-benzimidazole derivatives and their use as 5-lipoxygenase and/or prostaglandin E synthase inhibitors” (INSTITUT PASTEUR KOREA, priority 2014, dated 2022)", "key": {"[1]": {"system": "Rat whole blood (RWB)", "assay": "LTB4 secretion assay in RWB (rat whole blood)", "format": "cell-based", "method": "Rat blood was drawn from caudal vena cava from male Sprague Dawley rat (6-9 weeks old) in vacuette coated with sodium heparin (Greiner bio-one, Cat #455051). The blood was pooled and diluted with RPMI (WelGENE, Cat #LM 011-05) to 1:1. The diluted blood was aliquoted into 96 well plate (200 ul per well) and compounds were added in dose response to a desired concentration ranging from 2.5 nM to 50 uM. After 15 min of pre-incubation at 37° C., calcium ionophore (A23187) was added to the final concentration of 10 uM. After 10 min of further incubation at 37° C., the LTB4 production was stopped by diluting the reaction mixture with ice cold PBS (1:4 dilutions). Cells were removed by centrifugation at 1000×g, 4° C. for 10 min, and the supernatant was transferred and then the quantification of LTB4 was done with Leukotriene B4 EIA kit (Cayman, Cat #520111) as instructed."}, "[2]": {"molecular_target": "T1, human 5-LOX (Homo sapiens, UniProt P09917)", "T1 construct": "purchased Cayman 60402; host or cells: insect cells (lysate)", "T1 sequence (P09917 1-674)": "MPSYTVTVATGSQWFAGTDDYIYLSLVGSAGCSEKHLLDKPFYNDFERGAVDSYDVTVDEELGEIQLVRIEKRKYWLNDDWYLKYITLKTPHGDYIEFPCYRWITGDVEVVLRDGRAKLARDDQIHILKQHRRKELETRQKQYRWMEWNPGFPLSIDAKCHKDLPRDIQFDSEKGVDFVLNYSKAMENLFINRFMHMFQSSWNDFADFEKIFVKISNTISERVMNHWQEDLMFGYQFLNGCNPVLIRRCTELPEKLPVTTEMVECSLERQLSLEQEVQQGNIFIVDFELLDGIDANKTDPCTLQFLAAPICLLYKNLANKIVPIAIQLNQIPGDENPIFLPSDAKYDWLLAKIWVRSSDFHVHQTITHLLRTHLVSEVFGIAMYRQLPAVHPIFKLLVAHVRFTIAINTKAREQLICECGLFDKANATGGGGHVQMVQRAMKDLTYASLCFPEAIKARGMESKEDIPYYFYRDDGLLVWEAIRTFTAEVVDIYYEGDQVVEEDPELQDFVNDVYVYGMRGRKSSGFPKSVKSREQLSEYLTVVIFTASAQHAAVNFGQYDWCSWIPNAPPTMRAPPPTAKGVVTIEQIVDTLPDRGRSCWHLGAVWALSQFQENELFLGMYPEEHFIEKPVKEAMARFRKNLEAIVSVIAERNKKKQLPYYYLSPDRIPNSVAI", "assay": "5-LOX enzyme activity, fluorescence method (5-HPETE, H2DCFDA)", "format": "biochemical", "conditions": "read-out: 5-LO (IC50)", "in_short": "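Fluorescence-based read-out, run entirely at room temperature. Enzyme mixture was exposed to a dose range of compound from 0.5 nM to 10 uM for 5 min before ATP and arachidonic acid were added to final levels of 100 uM and 3 uM.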"}, "[3]": {"system": "Rat basophilic leukemia (RBL) cells", "assay": "LTB4 secretion assay in RBL (rat basophilic leukemia cells)", "format": "cell-based", "in_short": "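LTB4 released into supernatant was measured by EIA after 10 min at 37 °C with arachidonic acid (2.5 uM final) and calcium ionophore A23187 (5 uM final). Before stimulation, cells plated 2×10^4/well overnight received compound doses (5 nM to 100 uM) for 15 min in 0.5% FBS medium.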"}}, "note": "Read-outs that look alike come from different tables or passages of the source.", "data": [{"smiles": "Clc1ccc(Oc2ccc(CNc3nc4cc(NC5COC5)ccc4[nH]3)cc2)nc1", "note": "[Compound 166]", "values": [{"measurement": "EC50", "setting": "[1]; Rattus norvegicus", "result": "< 10", "unit": "µM"}, {"measurement": "IC50", "setting": "[2]", "result": "< 1", "unit": "µM"}, {"measurement": "EC50", "setting": "[3]; Rattus norvegicus, RBL", "result": "< 10", "unit": "µM"}]}, {"smiles": "Cc1cc(Nc2ccc3nc(NCc4ccc(N(C)c5ncc(Cl)cn5)cc4)n(C)c3c2)n[nH]1", "note": "[Compound 471]", "values": [{"measurement": "EC50", "setting": "[1]; Rattus norvegicus", "result": "< 10", "unit": "µM"}, {"measurement": "IC50", "setting": "[2]", "result": "< 1", "unit": "µM"}, {"measurement": "EC50", "setting": "[3]; Rattus norvegicus, RBL", "result": "< 10", "unit": "µM"}]}, {"smiles": "Cc1cc(Nc2ccc3nc(NCc4ccc(Oc5ncc(Cl)cn5)cc4)n(C)c3c2)n[nH]1", "note": "[Compound 415]", "values": [{"measurement": "EC50", "setting": "[1]; Rattus norvegicus", "result": "< 10", "unit": "µM"}, {"measurement": "IC50", "setting": "[2]", "result": "< 1", "unit": "µM"}, {"measurement": "EC50", "setting": "[3]; Rattus norvegicus, RBL", "result": "< 10", "unit": "µM"}]}, {"smiles": "Clc1ccc(Oc2ccc(CNc3nc4cc(NCc5ccccn5)ccc4[nH]3)cc2)cc1", "note": "[Compound 149]", "values": [{"measurement": "EC50", "setting": "[1]; Rattus norvegicus", "result": "< 10", "unit": "µM"}, {"measurement": "IC50", "setting": "[2]", "result": "< 1", "unit": "µM"}, {"measurement": "EC50", "setting": "[3]; Rattus norvegicus, RBL", "result": "< 10", "unit": "µM"}]}, {"smiles": "Cn1c(NCc2ccc(Oc3ccc(F)cn3)cc2)nc2ccc(NC3COC3)cc21", "note": "[Compound 302]", "values": [{"measurement": "EC50", "setting": "[1]; Rattus norvegicus", "result": "10 to 20", "unit": "µM"}, {"measurement": "IC50", "setting": "[2]", "result": "< 1", "unit": "µM"}, {"measurement": "EC50", "setting": "[3]; Rattus norvegicus, RBL", "result": "< 10", "unit": "µM"}]}, {"smiles": "Cn1c(NCc2ccc(Oc3ccncn3)cc2)nc2ccc(NC3COC3)cc21", "note": "[Compound 371]", "values": [{"measurement": "EC50", "setting": "[1]; Rattus norvegicus", "result": "10 to 20", "unit": "µM"}, {"measurement": "IC50", "setting": "[2]", "result": "< 1", "unit": "µM"}, {"measurement": "EC50", "setting": "[3]; Rattus norvegicus, RBL", "result": "10 to 20", "unit": "µM"}]}, {"smiles": "CCn1c(NCc2ccc(Oc3ncc(C(F)(F)F)cn3)cc2)nc2ccc(Nc3cc(C(C)(C)C)[nH]n3)cc21", "note": "[Compound 513]", "values": [{"measurement": "EC50", "setting": "[1]", "result": "< 10", "unit": "µM"}, {"measurement": "IC50", "setting": "[2]", "result": "< 1", "unit": "µM"}, {"measurement": "EC50", "setting": "[3]", "result": "< 10", "unit": "µM"}]}, {"smiles": "CCC(Nc1nc2ccc(Nc3cc(C)[nH]n3)cc2n1C)c1ccc(Oc2ncc(Cl)cn2)cc1F", "note": "(stereo not drawn) [Compound 537]", "values": [{"measurement": "EC50", "setting": "[1]; Rattus norvegicus", "result": "< 10", "unit": "µM"}, {"measurement": "IC50", "setting": "[2]", "result": "< 1", "unit": "µM"}, {"measurement": "EC50", "setting": "[3]; Rattus norvegicus, RBL", "result": "< 10", "unit": "µM"}]}, {"smiles": "Cn1ccc(Nc2ccc3nc(NCc4ccc(Oc5ncc(Cl)cn5)cc4)n(C)c3c2F)n1", "note": "[Compound 487]", "values": [{"measurement": "EC50", "setting": "[1]; Rattus norvegicus", "result": "< 10", "unit": "µM"}, {"measurement": "IC50", "setting": "[2]", "result": "< 1", "unit": "µM"}, {"measurement": "EC50", "setting": "[3]; Rattus norvegicus, RBL", "result": "< 10", "unit": "µM"}]}, {"smiles": "CCC(Nc1nc2ccc(Nc3cc(C)[nH]n3)cc2n1C)c1ccc(Oc2ncc(Cl)cn2)cc1", "note": "(stereo not drawn) [Compound 477]", "values": [{"measurement": "EC50", "setting": "[1]; Rattus norvegicus", "result": "< 10", "unit": "µM"}, {"measurement": "IC50", "setting": "[2]", "result": "< 1", "unit": "µM"}, {"measurement": "EC50", "setting": "[3]; Rattus norvegicus, RBL", "result": "< 10", "unit": "µM"}]}, {"smiles": "Nc1ccc2nc(NCc3ccc(Oc4ncccn4)cc3)[nH]c2c1", "note": "[Compound 154]", "values": [{"measurement": "EC50", "setting": "[1]; Rattus norvegicus", "result": "> 20", "unit": "µM"}, {"measurement": "IC50", "setting": "[2]", "result": "< 1", "unit": "µM"}, {"measurement": "EC50", "setting": "[3]; Rattus norvegicus, RBL", "result": "> 20", "unit": "µM"}]}, {"smiles": "Cn1nc(Nc2cc(F)c3nc(NCc4ccc(Oc5ncc(Cl)cn5)cc4)n(C)c3c2)cc1C(F)(F)F", "note": "[Compound 524]", "values": [{"measurement": "EC50", "setting": "[1]; Rattus norvegicus", "result": "10 to 20", "unit": "µM"}, {"measurement": "IC50", "setting": "[2]", "result": "> 10", "unit": "µM"}, {"measurement": "EC50", "setting": "[3]; Rattus norvegicus, RBL", "result": "< 10", "unit": "µM"}]}, {"smiles": "CNc1nc2ccc(N)cc2n1Cc1ccc(Oc2ccc(Cl)cn2)cc1", "note": "[Compound 229]", "values": [{"measurement": "EC50", "setting": "[1]; Rattus norvegicus", "result": "< 10", "unit": "µM"}, {"measurement": "IC50", "setting": "[2]", "result": "< 1", "unit": "µM"}, {"measurement": "EC50", "setting": "[3]; Rattus norvegicus, RBL", "result": "< 10", "unit": "µM"}]}, {"smiles": "Cn1c(NCc2ccc(Oc3nccc(C(F)(F)F)n3)cc2)nc2ccc(NC3COC3)cc21", "note": "[Compound 364]", "values": [{"measurement": "EC50", "setting": "[1]; Rattus norvegicus", "result": "> 20", "unit": "µM"}, {"measurement": "IC50", "setting": "[2]", "result": "< 1", "unit": "µM"}, {"measurement": "EC50", "setting": "[3]; Rattus norvegicus, RBL", "result": "> 20", "unit": "µM"}]}, {"smiles": "Nc1nc2ccc(Nc3n[nH]cc3C(=O)NC3CC3)cc2n1CCOc1ccc(OC(F)(F)F)cc1", "note": "[Compound 17]", "values": [{"measurement": "EC50", "setting": "[1]; Rattus norvegicus", "result": "> 20", "unit": "µM"}, {"measurement": "IC50", "setting": "[2]", "result": "1 to 10", "unit": "µM"}, {"measurement": "EC50", "setting": "[3]; Rattus norvegicus, RBL", "result": "< 10", "unit": "µM"}]}, {"smiles": "Nc1ccc2nc(N)n(Cc3ccc(Oc4ccc(Cl)nc4)cc3)c2c1", "note": "[Compound 238]", "values": [{"measurement": "EC50", "setting": "[1]; Rattus norvegicus", "result": "< 10", "unit": "µM"}, {"measurement": "IC50", "setting": "[2]", "result": "< 1", "unit": "µM"}, {"measurement": "EC50", "setting": "[3]; Rattus norvegicus, RBL", "result": "< 10", "unit": "µM"}]}, {"smiles": "Nc1ccc2[nH]c(NCc3ccc(N4CCC(OCc5ccc(Cl)cc5)CC4)cc3)nc2c1", "note": "[Compound 6]", "values": [{"measurement": "EC50", "setting": "[1]; Rattus norvegicus", "result": "> 20", "unit": "µM"}, {"measurement": "IC50", "setting": "[2]", "result": "< 1", "unit": "µM"}]}, {"smiles": "Nc1ccc2[nH]c(NCc3ccc(N4CCOCC4)cc3)nc2c1", "note": "[Compound 7]", "values": [{"measurement": "EC50", "setting": "[1]; Rattus norvegicus", "result": "> 20", "unit": "µM"}, {"measurement": "IC50", "setting": "[2]", "result": "< 1", "unit": "µM"}]}, {"smiles": "Nc1ccc2nc(N)n(CCc3ccc(Oc4ccc(Cl)cc4)cc3)c2c1", "note": "[Compound 15]", "values": [{"measurement": "EC50", "setting": "[1]; Rattus norvegicus", "result": "> 20", "unit": "µM"}, {"measurement": "IC50", "setting": "[2]", "result": "< 1", "unit": "µM"}]}, {"smiles": "CC(C)(Nc1nc2cc(N)ccc2[nH]1)c1ccc(Oc2ccc(Cl)cc2)cc1", "note": "[Compound 20]", "values": [{"measurement": "EC50", "setting": "[1]; Rattus norvegicus", "result": "> 20", "unit": "µM"}, {"measurement": "IC50", "setting": "[2]", "result": "< 1", "unit": "µM"}]}, {"smiles": "Nc1ccc2[nH]c(NCc3ccc(Oc4ccc(Cl)cc4)cc3F)nc2c1", "note": "[Compound 10]", "values": [{"measurement": "EC50", "setting": "[1]; Rattus norvegicus", "result": "10 to 20", "unit": "µM"}, {"measurement": "IC50", "setting": "[2]", "result": "< 1", "unit": "µM"}]}, {"smiles": "Cc1cc(Nc2ccc3[nH]c(NCc4ccc(Oc5ccc(Cl)cc5)cc4)nc3c2)n[nH]1", "note": "[Compound 8]", "values": [{"measurement": "EC50", "setting": "[1]; Rattus norvegicus", "result": "> 20", "unit": "µM"}, {"measurement": "IC50", "setting": "[2]", "result": "< 1", "unit": "µM"}]}]}
